Results: publication PMC10974732 (2024)
Converted amounts (≈) assume the structure as drawn.

What follows are compounds tested on 2B.N2A9 (DNA, aptamer) CATCTGCAGTGTGGCACCATGGGCATTGGGGGGCGAGGGTGGTTGGAGCGTTTGTGTGCGACGTGCTGAGCGTGAATTCGC (assay: indirect competitive ELOSA (SA-HRP/TMB)). Details: 37 °C, 1 h; 50 nM aptamer; competes with immobilised Neu5Gc-BSA (1 μg/mL coating).

| SMILES | IC50 |
| --- | --- |
| O=C(O)C1(O)C[C@H](O)[C@@H](O)[C@H]([C@H](O)[C@H](O)CO)O1 (stereo partly shown) | 1659.58 ng/mL (≈ 6.19 µM) |
| CC(=O)N[C@@H]1C(O)O[C@H](CO)[C@@H](O)[C@@H]1O (stereo partly shown) | 36,307.8 ng/mL |
| CC(=O)N[C@H]1[C@H]([C@H](O)[C@H](O)CO)OC(O)(C(=O)O)C[C@@H]1O (stereo partly shown) | 467.74 ng/mL (≈ 1.51 µM) |
| O=C(CO)N[C@H]1[C@H]([C@H](O)[C@H](O)CO)OC(O)(C(=O)O)C[C@@H]1O (stereo partly shown) | 9.35 ng/mL (≈ 0.0287 µM) |

Second part, the compound after the results:

| IC50 | SMILES |
| --- | --- |
| > 93,500.00 ng/mL | OC[C@H]1O[C@@](CO)(O[C@H]2O[C@H](CO)[C@@H](O)[C@H](O)[C@H]2O)[C@@H](O)[C@@H]1O |
| > 93,500.00 ng/mL | OC[C@H]1O[C@H](O[C@H]2[C@H](O)[C@@H](O)C(O)O[C@@H]2CO)[C@H](O)[C@@H](O)[C@@H]1O (stereo partly shown) |
| > 93,500.00 ng/mL | OC[C@H]1OC(O)[C@H](O)[C@@H](O)[C@@H]1O (stereo partly shown) |
